Patent US12371748B2, “Genetic markers for predicting responsiveness to therapy with HDL-raising or HDL mimicking agent” (Hoffmann-La Roche Inc., priority 2014, dated 2025)
Where two headings read alike, the source gives them in different places.

What was measured:
[1] = humans; cited from earlier work
CETP = target: T1, CETP (Homo sapiens, UniProt P11597); settings: humans; cited from earlier work
T1 construct: host or cells: humans (in vivo; endogenous plasma CETP)
T1 sequence (P11597 18-493): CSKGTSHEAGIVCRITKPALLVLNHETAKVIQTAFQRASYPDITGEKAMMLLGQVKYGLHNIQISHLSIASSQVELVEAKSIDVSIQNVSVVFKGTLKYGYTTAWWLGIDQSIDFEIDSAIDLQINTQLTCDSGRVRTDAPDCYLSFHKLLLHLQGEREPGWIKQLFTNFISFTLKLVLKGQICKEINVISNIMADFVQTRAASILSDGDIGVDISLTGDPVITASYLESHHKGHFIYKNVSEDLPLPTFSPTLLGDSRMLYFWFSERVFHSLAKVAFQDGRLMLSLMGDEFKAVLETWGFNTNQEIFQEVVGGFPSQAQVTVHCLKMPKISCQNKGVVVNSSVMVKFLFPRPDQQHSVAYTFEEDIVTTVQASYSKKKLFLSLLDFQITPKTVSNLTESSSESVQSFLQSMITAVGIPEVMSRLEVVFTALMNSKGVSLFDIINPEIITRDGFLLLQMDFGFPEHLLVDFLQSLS

[2] = dal-OUTCOMES: change in plasma lipids by rs1967309 genotype; format: in vivo, human; settings: for change in total cholesterol at 1 month: dalcetrapib arm
Method: All patients were following individualized programs to target LDL cholesterol levels of 100 mg per deciliter (2.6 mmol per liter) or lower by statin if tolerated and diet. No specific statin agent was specified, and patients were not excluded based on LDL cholesterol values. Patients with serum triglyceride levels of 400 mg per deciliter (4.5 mmol per liter) or higher were excluded. (Schwartz G G et al. N Engl J Med 2012; 367:2089-99) Eligible participants to the dal-Outcomes trial entered a single-blind placebo run-in period of approximately 4 to 6 weeks to allow for patients to stabilise and for completion of planned revascularisation procedures. At the end of the run-in period, eligible patients in stable condition were randomised in a 1:1 ratio to 600 mg of dalcetrapib or placebo on top of evidence-based medical care for acute coronary syndrome. Cardiovascular events were adjudicated by an independent clinical endpoint committee. For the pharmacogenomics study, 6338 patients were recruited from April 2008 through July 2010 at 461 sites in 14 countries and provided written informed consent to participate to the genetic study of the dal-OUTCOMES trial. DNA was extracted from whole blood. Following genomic data cleanup, samples from 5749 Caucasian patients were used for the discovery genome-wide association study (GWAS).
This effect was not observed in the placebo arm. […] During the dalcetrapib treatment period, GG carriers had overall slightly lower LDL-cholesterol levels (adjusted P=0.048; repeated measures analysis, FIG. 4).

[3] = rabbits; cited from earlier work

Structure (SMILES): CCC(CC)CC1(C(=O)Nc2ccccc2SC(=O)C(C)C)CCCCC1 [dalcetrapib, thioisobutyric acid S-(2-{[1-(2-ethyl-butyl)-cyclohexanecarbonyl]-amino}-phenyl) ester]
- LDL cholesterol [1]: decrease LDL cholesterol
- plasma HDL cholesterol [1]: increase plasma HDL cholesterol
- CETP activity (CETP): inhibitor of CETP activity
- change in total cholesterol at 1 month ([2]; rs1967309 AA): 13.8 ± 24.0 mg/dL
- change in total cholesterol at 1 month ([2]; rs1967309 AG): 12.9 ± 30.3 mg/dL
- change in total cholesterol at 1 month ([2]; rs1967309 GG): 10.0 ± 23.3 mg/dL
- change in LDL-cholesterol after 1 month of dalcetrapib treatment ([2]; rs1967309 AA): +0.6±21.0 mg/dl
- change in LDL-cholesterol after 1 month of dalcetrapib treatment ([2]; rs1967309 AG): -1.0 ± 20.0 mg/dL
- change in LDL-cholesterol after 1 month of dalcetrapib treatment ([2]; rs1967309 GG): -2.0 ± 20.0 mg/dL
- LDL cholesterol [3]: decrease LDL cholesterol
- plasma HDL cholesterol [3]: increase plasma HDL cholesterol
